Measurements published in PMC11435058, “Synthesis of New Thiazole-Privileged Chalcones as Tubulin Polymerization Inhibitors with Potential Anticancer Activities” (Pharmaceuticals, 2024).

Columns and labels:
Experiment in all cases: NCI-60 anticancer screen (SRB; single dose and five doses)
OVCAR-5 = settings: Homo sapiens
MALME-3M = settings: Homo sapiens
HCC-2998 = tested on: HCC-2998
SK-OV-3 = settings: Homo sapiens
LOX IMVI = settings: Homo sapiens
NCI-H226 = settings: Homo sapiens
NCI/ADR-RES = settings: Homo sapiens
HL-60(TB) = settings: Homo sapiens
MOLT-4 = settings: Homo sapiens
K-562 = settings: Homo sapiens
T-47D = settings: Homo sapiens, T47D
HCT-15 = settings: Homo sapiens
HT29 = settings: Homo sapiens
OVCAR-4 = settings: Homo sapiens
MDA-MB-435 = settings: Homo sapiens
[1] = 48 h, read-out: Growth Percentage

Cc1[nH]c(=S)sc1C(=O)/C=C/c1ccc(Br)cc1 [2g, (E)-3-(4-Bromophenyl)-1-(4-Methyl-2-Thioxo-2,3-Dihydrothiazol-5-yl)Prop-2-En-1-One]
GI50 (OVCAR-5; OVCAR-5): 15.4 µM
activity at 10 µM (OVCAR-5; OVCAR-5, 48 h, read-out: Growth Percentage): 116%
CC50 (OVCAR-5; OVCAR-5, read-out: LC50): 57.3 µM
IC (TGI) (OVCAR-5; OVCAR-5, read-out: TGI): 29.7 µM
GI50 (MALME-3M): 12.5 µM
activity at 10 µM (MALME-3M; [1]): 72.9%
CC50 (MALME-3M; read-out: LC50): 67.2 µM
IC (TGI) (MALME-3M; read-out: TGI): 29 µM
GI50 (HCC-2998; Homo sapiens, HCC 2998): 2.72 µM
activity at 10 µM (HCC-2998; Homo sapiens, HCC 2998, 48 h, read-out: Growth Percentage): 3.23%
CC50 (HCC-2998; Homo sapiens, HCC 2998, read-out: LC50): 31.6 µM
TGI (HCC-2998; five-dose, Colon Cancer HCC-2998): 9.62 µM
GI50 (SK-OV-3; SK-OV-3): 13.8 µM
activity at 10 µM (SK-OV-3; SK-OV-3, 48 h, read-out: Growth Percentage): 96.7%
CC50 (SK-OV-3; SK-OV-3, read-out: LC50): 74.9 µM
IC (TGI) (SK-OV-3; SK-OV-3, read-out: TGI): 32.2 µM
GI50 (LOX IMVI): 2.8 µM
activity at 10 µM (LOX IMVI; [1]): -5.17%
CC50 (LOX IMVI; read-out: LC50): 33.7 µM
IC (TGI) (LOX IMVI; read-out: TGI): 10.2 µM
GI50 (NCI-H226; NCI-H226): 4.13 µM
activity at 10 µM (NCI-H226; NCI-H226, 48 h, read-out: Growth Percentage): 54.5%
CC50 (NCI-H226; NCI-H226, read-out: LC50): > 100 µM
IC (TGI) (NCI-H226; NCI-H226, read-out: TGI): 25.4 µM
GI50 (NCI/ADR-RES): 6.04 µM
activity at 10 µM (NCI/ADR-RES; [1]): -13.9%
CC50 (NCI/ADR-RES; read-out: LC50): 73.4 µM
IC (TGI) (NCI/ADR-RES; read-out: TGI): 23.4 µM
GI50 (HL-60(TB); HL-60): 1.94 µM
activity at 10 µM (HL-60(TB); HL-60, 48 h, read-out: Growth Percentage): 13.2%
CC50 (HL-60(TB); HL-60, read-out: LC50): > 100 µM
IC (TGI) (HL-60(TB); HL-60, read-out: TGI): 9.92 µM
GI50 (MOLT-4; MOLT-4): 3.57 µM
activity at 10 µM (MOLT-4; MOLT-4, 48 h, read-out: Growth Percentage): 30.2%
CC50 (MOLT-4; MOLT-4, read-out: LC50): > 100 µM
IC (TGI) (MOLT-4; MOLT-4, read-out: TGI): 36.6 µM
GI50 (K-562; K562): 2.73 µM
activity at 10 µM (K-562; K562, 48 h, read-out: Growth Percentage): 13.6%
CC50 (K-562; K562, read-out: LC50): > 100 µM
IC (TGI) (K-562; K562, read-out: TGI): > 100 µM
GI50 (T-47D): 2.77 µM
activity at 10 µM (T-47D; [1]): 29%
CC50 (T-47D; read-out: LC50): 61.7 µM
IC (TGI) (T-47D; read-out: TGI): 11.8 µM
GI50 (HCT-15; HCT-15): 2.66 µM
activity at 10 µM (HCT-15; HCT-15, 48 h, read-out: Growth Percentage): 5.48%
CC50 (HCT-15; HCT-15, read-out: LC50): 36.4 µM
IC (TGI) (HCT-15; HCT-15, read-out: TGI): 10 µM
GI50 (HT29; HT-29): 5.09 µM
activity at 10 µM (HT29; HT-29, 48 h, read-out: Growth Percentage): 76.3%
CC50 (HT29; HT-29, read-out: LC50): 57.8 µM
IC (TGI) (HT29; HT-29, read-out: TGI): 19.3 µM
GI50 (OVCAR-4; OVCAR-4): 10.7 µM
activity at 10 µM (OVCAR-4; OVCAR-4, 48 h, read-out: Growth Percentage): 49.5%
CC50 (OVCAR-4; OVCAR-4, read-out: LC50): 48.5 µM
IC (TGI) (OVCAR-4; OVCAR-4, read-out: TGI): 22.8 µM
GI50 (MDA-MB-435; MDA-MB-435): 4.12 µM
activity at 10 µM (MDA-MB-435; MDA-MB-435, 48 h, read-out: Growth Percentage): 8.26%
